Results on eight substances are retold here after patent publication US20130190240A1, “TUMOR GROWTH CONTROLLING METHOD TARGETING GALACTOSYLCERAMIDE EXPRESSION FACTOR-1” (priority 2010, published 2013).

Data set [1] deals with SMAD transcriptional activity. Kind of data set: SMAD transcriptional activity (luciferase) with GEF-1/C constituent oligopeptides, B16 cells. As to conditions: oligopeptide 2.5 nmol with peptide transporter Wr-T, 48 hours. Type of data set: cell-based, mouse. The protocol: Each GEF-1/C constituent oligopeptide (2.5 nmol) and a peptide transporter Wr-T (0.2 nmol) were mixed and then diluted to 0.1 ml with PBS, and mixed with a DNA solution for SMAD transcriptional activity testing (0.1 ml). To the respective cells (B16 cells and COLO205 cells) in a 48-well plate, which had been washed with Opti-MEM I medium, the mixture thus prepared was added in a volume of 0.2 ml per well. After 4 hours, 20% FBS/Opti-MEM I medium (0.2 ml) was added to each well. After 48 hours, the respective cells were lysed and the luciferase activity in each lysate was measured.

Data set [2] deals with COLO205 cells. The data set can be described thus: growth in soft agar medium, COLO205 cells. It counts as cell-based, human. As to conditions: oligopeptide introduced with Wr-T. As for the experimental part:
(§1) A cell culture solution (1.5 ml), in which agarose (low gelling temperature agarose) was dissolved at a concentration of 0.5% (w/v), was added to a 35 mm dish, cooled and gelled. Onto the resulting gel, a 0.33% agarose/cell culture medium containing 5.0×10^3 cells was added in a volume of 1.5 ml. After gelling, the cells were cultured in a CO2 incubator for 2 weeks. A 0.005% (w/v) aqueous solution of crystal violet (0.5 ml) was added onto the gel and incubated overnight to stain the cells. The 35 mm dish was scanned with a scanner, and colony counts were measured from the resulting image using image analysis software.
(§2) The GEF-1/C constituent oligopeptides were studied for their inhibitory effect on the growth of various tumor cells (B16 cells, HeLa cells, COLO205 cells, KATO III cells, A549 cells and PT45 cells) in soft agar medium.
(§3) In the same manner as shown in (2) above, the GEF-1/C constituent oligopeptides were introduced into various tumor cells and these cells were seeded together with a 0.33% soft agar medium.

Data set [3] deals with B16 cells. Kind of data set: growth in soft agar medium, B16 cells. To be noted: oligopeptide introduced with Wr-T. Type of data set: cell-based, mouse. As for the experimental part: as §1, §2, §3
In a further data set the test system is HeLa cells. Kind of data set: growth in soft agar medium, HeLa cells. Type of data set: cell-based, human. As to conditions: oligopeptide introduced with Wr-T. The protocol: as §1, §2, §3
The subject of data set [4] is B16 cells. Kind of data set: in vivo anti-tumor growth effect of oligopeptides, B16 cells in nude mice. More on the design: species or system mouse. As to conditions: cells incubated with oligopeptide 25 nmol and Wr-T for 2 hours, then inoculated subcutaneously into nude mice. As for the experimental part:
Each GEF-1/C constituent oligopeptide (25 nmol) and a peptide transporter Wr-T (2 nmol) were mixed and then diluted to 0.1 ml with PBS, to which each cell suspension prepared at 5.0×10^6 cells/ml Opti-MEM I medium was then added in a volume of 0.1 ml and mixed. This cell mixture was incubated in a CO2 incubator at 37° C. for 2 hours and then inoculated subcutaneously into nude mice. The long and short axes of tumor were measured at intervals of a week to calculate the tumor volume (=long axis×(short axis)^2×π/6). After the mice were finally euthanized with carbon dioxide gas, tumor in each mouse was photographed. Subsequently, the tumor was excised and measured for its wet weight.

For data set [5], the system named is COLO205 cells. The data set can be described thus: in vivo anti-tumor growth effect of r9-OP10-11 on established COLO205 tumor in nude mice. More on the design: species or system human. To be noted: tumor already formed; 35 nmol in PBS around the tumor, four weekly administrations. As for the experimental part:
1.0×10^6 COLO205 cells were inoculated subcutaneously into nude mice to prepare tumor of COLO205 cells. At 10 days after inoculation, a solution of r9-OP10-11 (35 nmol)/PBS was administered in a volume of 0.1 ml around the tumor whose diameter reached 5 to 6 mm (about 100 mm^3) At 7, 14 and 21 days after this administration, the same administration was repeated. The long and short axes of tumor were measured to calculate the tumor volume (=long axis×(short axis)^2×π/6). After the mice were finally euthanized with carbon dioxide gas, tumor in each mouse was photographed. Subsequently, the tumor was excised and measured for its wet weight.

For the next data set, the system named is GEF-1 (Hrs/Hgs). The data set can be described thus: GEF-1 (Hgs) expression level by Western blotting in shRNA-expressing B16 cells. It counts as cell-based, mouse. As to conditions: B16 cells stably expressing the shRNA. As for the experimental part: (§4) The respective shRNA expression vectors prepared in i) above were each introduced into B16 cells by gene transfer and subjected to drug selection using G418 drug (1 mg/ml). B16 cells expressing the respective shRNAs (B16/shRNA-74 cells, B16/shRNA-157 cells and B16/shRNA-207 cells) were finally obtained by cloning. These cells were confirmed for their GEF-1 expression levels by Western blotting and also examined for their ability of cell migration using a Boyden chamber.

The subject of data set [6] is B16 cells. The data set can be described thus: cell migration ability of shRNA-expressing B16 cells, Boyden chamber. Type of data set: cell-based, mouse. To be noted: B16 cells stably expressing the shRNA. The protocol: as §4
A further data set relates to KOP2.16 cells. The data set can be described thus: tube formation inhibition test with GEF-1 siRNAs. It counts as cell-based, mouse. To be noted: siRNA 40 nmol with lipofectamine 2000; transfected KOP2.16 cells seeded on Matrigel. As for the experimental part: To confirm the in vitro anti-angiogenic effect of the GEF-1-siRNAs, a tube formation inhibition test was conducted using vascular endothelial KOP2.16 cells.
Each siRNA (40 nmol) and lipofectamine 2000 (10 μl) were mixed and then diluted to 1.0 ml with Opti-MEM I medium, and added to KOP2.16 cells in a 35 mm dish, which had been washed with Opti-MEM I medium. After 4 hours, 20% FBS-containing Opti-MEM I medium (1.0 ml) was added to the dish. After 48 hours, siRNA-transfected cells were collected and counted, and then suspended in Opti-MEM I medium and seeded again on Matrigel. After 18 to 48 hours, tube formation in the cells was observed. As negative controls, PBS (“None” in FIG. 15) and Stealth RNA Negative Control Medium GC Duplex (Invitrogen) (“siRNA-MNC” in FIG. 15) were used.

The test system of data set [7] is B16 cells. Kind of data set: in vivo anti-tumor growth effect of siRNA#3, B16 tumor in nude mice. More on the design: species or system mouse. To be noted: siRNA#3/atelocollagen mixture injected near the tumor, three times at intervals of a week. The protocol:
B 16 cells were inoculated subcutaneously into nude mice. After about a week when tumor reached about 5 mm diameter (about […]), an siRNA#3/atelocollagen mixture (0.2 ml) was injected near the tumor. Subsequently, the same siRNA#3/atelocollagen mixture was further injected twice near the tumor at intervals of a week.

Square brackets hold non-standard residues; d marks the D form. Ends that are not written are not given here.

For “OP10-7: GEF-1/C constituent oligopeptide ALSALREEHR (SEQ ID NO: 60)”, the “inhibition of SMAD transcriptional activity” value in [1] is reported as “about 50%”.
Consider “OP10-10: GEF-1/C constituent oligopeptide KLEIMRQKKQ (SEQ ID NO: 63)”, for which, in the data set with COLO205 cells [2], the “inhibition of growth ability in soft agar medium” value is “about 50%”.
For “OP10-11: GEF-1/C constituent oligopeptide EYLEVQRQLA (SEQ ID NO: 64)”, in [1], the “inhibition of SMAD transcriptional activity” value is recorded as “about 50%”. Further, the “inhibition of growth ability in soft agar medium” value is reported as “about 60%” in the data set with B16 cells [3], “about 20%” with HeLa cells and “about 50%” in the data set with COLO205 cells [2]. Also, the “inhibition of B16 cell tumor growth” value in the data set with B16 cells [4] is no less than 50%.
“OP10-12: GEF-1/C constituent oligopeptide IQRLQEQEKE (SEQ ID NO: 65)”: the “inhibition of SMAD transcriptional activity” value in data set [1] was “about 50%”.
“r9-OP10-11: OP10-11 linked to a cell membrane permeable peptide, rrrrrrrrrGPGEYLEVQRQLA (r = D-arginine) (SEQ ID NO: 67) ([dR][dR][dR][dR][dR][dR][dR][dR][dR]GPGEYLEVQRQLA)”: in the data set on COLO205 cells [5], the “inhibition of growth of COLO205 cell tumor in tumor volume” value is on record as “about 65%” and the “inhibition of growth of COLO205 cell tumor in tumor weight” value was “about 60%”.
On to “shRNA-157: shRNA against mouse GEF-1 (Hrs/Hgs) gene, Hgs157 template SEQ ID NO: 26; B16/shRNA-157 cells used as B16/shRNA cells (DNA CCGTTAATGATAAGAACCCACTTCAAGAGAGTGGGTTCTTATCATTAACTTTTTA)”, for which the “inhibition of Hgs expression” value with GEF-1 (Hrs/Hgs) is 95%. Besides, the “inhibition of cell migration ability” value with B16 cells [6] was 95%.
“siRNA#2: stealth RNAi against mouse Hgs; sense 5′-GGACGAUACUCGUCGACUUGUUCUU (SEQ ID NO: 32, 33) (antisense AAGAACAAGUCGACGAGUAUCGUCC; listed as RNA, chemistry not given here)”: the “inhibitory effect on tube formation” value with KOP2.16 cells is on record as “significant inhibitory effect”.
Turning to “siRNA#3: stealth RNAi against mouse Hgs; sense 5′-UAGAAUGGACUCCCAGUCUGACUCC (SEQ ID NO: 34, 35) (antisense GGAGUCAGACUGGGAGUCCAUUCUA; listed as RNA, chemistry not given here)”, in the data set with KOP2.16 cells, the “inhibitory effect on tube formation” value was “significant inhibitory effect”. In the data set on B16 cells [7], the “tumor volume as compared to PBS or siRNA#3-scramble” value is listed as no more than 50% and the “tumor weight as compared to PBS or siRNA#3-scramble” value is no more than 50%.
